Where “and” joins values, the source holds several entries; their conditions need not be identical. Identical values can stand only once.
What was measured:
[1] = target: T1, Rtt109-Vps75 (Saccharomyces cerevisiae, UniProt Q07794); assay: HAT-ThioGlo1 time course assay, Rtt109-Vps75; assay type: biochemical, S. cerevisiae; conditions: IC50, 50 nM Rtt109-Vps75, 15 μM H3n21 peptide, 30 μM Ac-CoA
T1 construct: 6xHis (on one of the two proteins of the complex); made in house; host or cells: bacteria
T1 sequence (Q07794 1-436): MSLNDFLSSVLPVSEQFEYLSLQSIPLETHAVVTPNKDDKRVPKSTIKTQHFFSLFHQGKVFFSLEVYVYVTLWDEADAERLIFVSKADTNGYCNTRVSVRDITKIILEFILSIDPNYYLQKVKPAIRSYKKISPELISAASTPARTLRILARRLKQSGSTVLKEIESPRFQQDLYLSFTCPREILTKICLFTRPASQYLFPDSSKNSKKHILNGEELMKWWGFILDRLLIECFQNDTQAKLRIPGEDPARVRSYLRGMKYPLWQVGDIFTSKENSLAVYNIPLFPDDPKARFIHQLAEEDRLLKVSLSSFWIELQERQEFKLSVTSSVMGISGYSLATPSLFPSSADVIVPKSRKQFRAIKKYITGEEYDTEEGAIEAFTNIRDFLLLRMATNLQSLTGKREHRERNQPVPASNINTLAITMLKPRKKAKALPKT
T1 sequence (P53853 1-264 partner): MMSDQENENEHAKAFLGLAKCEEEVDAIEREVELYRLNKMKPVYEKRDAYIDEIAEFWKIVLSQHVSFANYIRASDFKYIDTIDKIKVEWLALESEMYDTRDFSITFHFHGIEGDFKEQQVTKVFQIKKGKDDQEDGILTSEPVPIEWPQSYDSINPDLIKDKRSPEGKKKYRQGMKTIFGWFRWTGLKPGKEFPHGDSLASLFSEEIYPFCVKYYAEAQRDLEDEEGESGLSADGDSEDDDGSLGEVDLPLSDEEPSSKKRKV

[2] = target: T2, p300 (Homo sapiens, UniProt Q09472); assay: HAT-ThioGlo1 time course assay, p300; assay type: biochemical; conditions: up to 100 μM
T2 construct: p300 catalytic domain (p300 amino acids 1195-1810; Fan, 2010); 6xHis (N); FLAG (N); made in house; host or cells: BL21 E. coli
T2 sequence (Q09472 1195-1810): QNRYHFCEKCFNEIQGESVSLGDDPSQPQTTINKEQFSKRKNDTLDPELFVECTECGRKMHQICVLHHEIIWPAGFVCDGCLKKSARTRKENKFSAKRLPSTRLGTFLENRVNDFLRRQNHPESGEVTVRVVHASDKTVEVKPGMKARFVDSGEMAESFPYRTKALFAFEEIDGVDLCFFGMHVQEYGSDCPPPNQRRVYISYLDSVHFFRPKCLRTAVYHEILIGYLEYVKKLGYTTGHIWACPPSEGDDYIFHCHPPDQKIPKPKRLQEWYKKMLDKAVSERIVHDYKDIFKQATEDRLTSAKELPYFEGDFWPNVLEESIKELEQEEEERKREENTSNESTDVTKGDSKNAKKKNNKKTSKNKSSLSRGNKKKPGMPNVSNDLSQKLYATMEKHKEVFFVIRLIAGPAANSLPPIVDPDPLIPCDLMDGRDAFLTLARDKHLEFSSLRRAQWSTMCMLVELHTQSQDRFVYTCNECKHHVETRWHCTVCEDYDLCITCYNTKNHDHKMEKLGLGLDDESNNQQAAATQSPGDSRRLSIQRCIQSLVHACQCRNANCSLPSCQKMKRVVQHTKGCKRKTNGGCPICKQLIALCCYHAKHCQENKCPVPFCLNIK

[3] = target: T3, Gcn5 (Saccharomyces cerevisiae, UniProt Q03330); assay: HAT-ThioGlo1 time course assay, Gcn5; assay type: biochemical, S. cerevisiae; conditions: up to 100 μM
T3 construct: 6xHis (N); made in house; host or cells: BL21 E. coli
T3 sequence (Q03330 whole entry): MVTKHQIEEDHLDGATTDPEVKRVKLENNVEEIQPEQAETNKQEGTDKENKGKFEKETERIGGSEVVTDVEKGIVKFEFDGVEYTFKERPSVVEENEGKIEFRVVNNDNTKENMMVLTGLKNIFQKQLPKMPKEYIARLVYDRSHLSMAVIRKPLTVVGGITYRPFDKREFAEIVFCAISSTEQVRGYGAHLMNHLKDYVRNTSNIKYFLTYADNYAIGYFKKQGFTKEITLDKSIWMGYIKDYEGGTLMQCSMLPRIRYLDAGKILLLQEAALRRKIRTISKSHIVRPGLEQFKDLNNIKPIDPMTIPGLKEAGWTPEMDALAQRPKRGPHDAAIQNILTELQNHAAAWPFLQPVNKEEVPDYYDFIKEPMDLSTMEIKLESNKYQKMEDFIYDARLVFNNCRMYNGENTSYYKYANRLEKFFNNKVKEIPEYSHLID

Compound: CCCC1(c2ccccc2)NC(=O)N(CC(=O)N(C)Cc2c(F)cccc2Cl)C1=O (stereo not drawn) [KB7, N-[(2-chloro-6-fluorophenyl)methyl]-2-(2,5-dioxo-4-phenyl-4-propylimidazolidin-1-yl)-N-methylacetamide]
- IC50 [1]: 55.2 nM and ~56 nM
- enzyme reaction rate, % activity [2]: ≥ 80%
- enzyme reaction rate, % activity [3]: ≥ 80%

Source: patent publication US9648880B2, “Antifungal agents and uses thereof” (University of Massachusetts, priority 2012, dated 2017)
